# Earlier results in patent US20210212952A1, “METHOD AND ENCAPSULATED SUBSTANCE FOR TREATING PAIN DUE TO A VARIETY OF DISEASES” (priority 2020, published 2021).
# Conditions: in vivo, po
smiles,measurement,value
"O=C1CC[C@@]2(O)[C@H]3Cc4ccc(O)c5c4[C@@]2(CCN3CC2CC2)[C@H]1O5 [Naltrexone, naltrexone]",absorbed into the blood stream,96%
